According to PMC8232742, “Boswellic Acids Show In Vitro Activity against Leishmania donovani” (Molecules, 2021):
Values joined by “and” are separate entries in the source; they are usually repeats but may differ in a detail not shown here. Equal entries are not always repeated. Where two headings read alike, the source gives them in different places.

Experiments:
[1] = tested on: Leishmania donovani axenic amastigotes (MHOM-ET-67/L82 strain); assay: In vitro activity against L. donovani axenic amastigotes (resazurin); type: cell-based; settings: for IC50: Leishmania donovani
Protocol: (§1) In vitro tests for determination of activity against axenic amastigotes of Leishmania donovani (MHOM-ET-67/L82 strain) and cytotoxicity against mammalian cells (L6-cell-line from rat skeletal myoblasts) as well as against intramacrophage amastigotes of L. donovani were conducted at Swiss TPH according to an established protocol as reported before. For a repetition of these methods, see Supplementary File.
Miltefosine (≥98%, Sigma-Aldrich, Buchs, Switzerland) and podophyllotoxin (≥98%, Sigma-Aldrich, Buchs, Switzerland) were used as positive controls. Growth inhibition assays were meant to give only preliminary information on whether fractions show any bioactivity or not. Due to this explorative nature, this was conducted once. IC50 values represent geometric means of two independent determinations and were calculated by linear regression from the sigmoidal dose inhibition curves using SoftmaxPro (Molecular Devices Cooperation, Sunnyvale, CA, USA) software.
(§2) Biological Assays (according to [14,15])
(§3) The following biological tests were performed by applying validated method s of the Swiss TPH as previously published and described below. […]
(§4) After that, resazurin solution
(§5) (12.5 mg in 100 mL water, 10 μL) was added to each well, and the incubation continued for 2–4 h more. Then, the plates were read using a Spectramax Gemini XS microplate fluorometer (Molecular Devices Cooperation, Sunnyvale, CA, USA) and excitation and emission wavelengths of 536 and 588 nm, respectively. Data were analyzed with the software Softmax Pro (Molecular Devices Cooperation, Sunnyvale, CA, USA), which calculated IC50 values by linear regression and 4‐parameter logistic regression from the sigmoidal dose inhibition curves. […]
In vitro activity against L. donovani axenic amastigotes. Amastigotes of L. donovani strain MHOM/ET/67/L82 were grown in axenic culture at 37 °C in SM medium at pH 5.4 supplemented with 10% heat‐inactivated fetal bovine serum under a 5% CO2 atmosphere. Aliquots containing […] amastigotes from the axenic culture (100 μL), with or without a serial compound dilution (as specified before), were seeded in 96‐well plates. After 70 h of incubation, the plates were inspected under an inverted microscope to assure growth of the controls and sterile conditions.
Then, resazurin solution (12.5 mg in 100 mL water, 10 μL) was added to each well and the plates incubated for another 2 h. Finally, the plates were read using the same conditions mentioned for T. brucei rhodesiense. Data were analyzed in the same way. Miltefosine was used as positive control. […]
(§6) Netherlands). Compounds were diluted with medium as indicated above before being added to parasite cultures incubated in RPMI 1640 medium without hypoxanthine, supplemented with HEPES (5.94 g/L), NaHCO3 (2.1 g/L), neomycin (100 U/mL), AlbumaxR (5 g/L) and washed human red cells A+ at 2.5% hematocrit (0.3% parasitemia).
Serial compound dilutions were prepared as before. The 96‐well plates were incubated in a humidified atmosphere at 37 °C; 4% CO2, 3% O2, 93% N2. After 48 h, 50 μL of 3H‐hypoxanthine (0.5 μCi) was added to each well of the plate. The plates were incubated for a further 24 h under the same conditions. […] The dried filters were inserted into a plastic foil with 10 mL of scintillation fluid and counted in a Betaplate™ liquid scintillation counter (Wallac, Zurich, Switzerland). […]

[2] = In vitro cytotoxicity with L-6 cells (resazurin); type: cell-based; settings: rat, read-out: Cytotoxicity against L6 Rat Skeletal Myoblasts IC50
Protocol: as §1, §2, §3, §4, §5
Aliquots containing 105 amastigotes from the axenic culture (100 μL), with or without a serial compound dilution (as specified before), were seeded in 96‐well plates. After 70 h of incubation, the plates were inspected under an inverted microscope to assure growth of the controls and sterile conditions. […]
as §6
Serial compound dilutions were prepared as before. The 96‐well plates were incubated in a humidified atmosphere at 37 °C; 4% CO2, 3% O2, 93% N2. After 48 h, 50 μL of 3H‐hypoxanthine (0.5 μCi) was added to each well of the plate. The plates were incubated for a further 24 h under the same conditions. The plates were then harvested with a Betaplate™ cell harvester (Wallac, Zurich, Switzerland), and the red blood cells were transferred onto a glass fiber filter then washed with distilled water. The dried filters were inserted into a plastic foil with 10 mL of scintillation fluid and counted in a Betaplate™ liquid scintillation counter (Wallac, Zurich, Switzerland). […]
(§7) Serial compound dilutions prepared, as before, were us ed. […] Finally, the plates were read, and the data were treated as mentioned before. […]
(§8) Extracellular amast igotes were removed by triplicate washing after further 24 h. […] Images of the plates were recorded with an ImageXpress XLS (MD) microscope and automatically analyzed using the MetaXpress Software. […]

[3] = tested on: Leishmania donovani intracellular amastigotes; assay: In vitro activity against intracellular amastigotes of L. donovani in peritoneal murine macrophages; type: cell-based; settings: Macrophage
Protocol: as §1, §2, §3
Serial compound dilutions were prepared as before. […] The dried filters were inserted into a plastic foil with 10 mL of scintillation fluid and counted in a Betaplate™ liquid scintillation counter (Wallac, Zurich, Switzerland). […]
as §7
as §8, with “Software. Infected and non‐infected macrophages, as well as the number of intracellular parasites, were recorded.” for “Software.”

[4] = tested on: Leishmania donovani axenic amastigotes (MHOM-ET-67/L82 strain); parameters: method as in PMID 21157686; settings: cited from earlier work
[5] = tested on: P. falciparum NF54 strain erythrocytic stages; parameters: method as in PMID 21157686; settings: cited from earlier work
[6] = geometric mean of two independent determinations
[7] = geometric mean of two independent determinations (lower; upper)

| IC50 [3] | SMILES | SI (selectivity index) ([1]; L6 cytotoxicity vs L. donovani axenic amastigotes) | IC50 [1, 6] [nM] | IC50 [1, 7] [µg/mL] | IC50 at 70 h [2, 7] [µg/mL] | IC50 at 70 h [2, 6] [nM] | activity against L. donovani axenic amastigotes [4] | antiplasmodial activity in vitro [5] |
| --- | --- | --- | --- | --- | --- | --- | --- | --- |
| – | C[C@H]1[C@H](C)CC[C@]2(C)CC[C@]3(C)C(=CC[C@@H]4[C@@]5(C)CC[C@@H](O)[C@](C)(C(=O)O)[C@@H]5CC[C@]43C)[C@H]12 [Compound 3, β-boswellic acid] | 6.2 | 5300 | 2.4 | 15 | 33000 | – | – |
| 1.9 µg/mL and 4.7 µM | CCCCCCCCCCCCCCCCOP(=O)([O-])OCC[N+](C)(C)C [PCM, miltefosine] | – | 120 | 0.047 | – | – | – | – |
| – | COc1cc([C@@H]2c3cc4c(cc3[C@H](O)[C@H]3COC(=O)[C@H]23)OCO4)cc(OC)c1OC [PCP, podophyllotoxin] | – | – | – | 0.009 | 20 | – | – |
| – | C/C1=C\CC/C(C)=C/C[C@](O)(C(C)C)CC/C(C)=C/CC1 [Serratol] | – | – | – | – | – | essentially inactive | antiplasmodial activity |
